Test results from patent US7034013B2 (priority 2001, dated 2006).
≈ marks a conversion by molar mass, not a printed value. Where two headings read alike, the source gives them in different places.

Columns and labels:
[1] = in the absence of a solubilizing agent; cited from earlier work
[2] = for concentration of uncomplexed propofol in solution / concentration of uncomplexed propofol in solution, % of the total: binding constant 3800 M^−1
[3] = intravenous injection of a therapeutic dose; cited from earlier work
[4] = physchem; conditions: water, solubility in water
[5] = tested on: hemolysis; conditions: in concentrations typically used to solubilize pharmaceutical formulations; FIG. 1 (Thompson 1997); cited from earlier work
[6] = CAPTISOL cyclodextrin 14.4% w/v (0.0665M)
[7] = CAPTISOL cyclodextrin 50% w/v (0.231M)

| Molecule | water solubility [1] | concentration of uncomplexed propofol in solution [2, 6] | concentration of uncomplexed propofol in solution, % of the total [2, 6] | concentration of uncomplexed propofol in solution [2, 7] | concentration of uncomplexed propofol in solution, % of the total [2, 7] | solubility in water | time to induction of anesthesia from the start of injection [3] | solubility [4] | CAPTISOL® cyclodextrin concentration required to raise aqueous propofol from 0.15 mg/mL to 10 mg/mL ([2]; propofol 10 mg/mL) | hemolytic behavior [5] |
| --- | --- | --- | --- | --- | --- | --- | --- | --- | --- | --- |
| CC(C)c1cccc(C(C)C)c1O [propofol, 2,6-diisopropylphenol] | approximately 0.154 mg/mL | ~0.00124 M | about 2.21% | ~0.000084 M | about 0.15% | 150 µg/mL (≈ 841 µM) | ≤ 40 s | ~150 µg/mL (≈ 841 µM) |  |  |
| Sulfobutyl Ether-β-Cyclodextrin [CAPTISOL® cyclodextrin] |  |  |  |  |  |  |  |  | 15 % w/v | essentially no hemolytic behavior |
